Laboratory results as given in ChEMBL document CHEMBL4507282, “Data for DCP probe BI-1950” (2021).

Columns and labels:
[1] = biological target: Sigma intracellular receptor 2 (Homo sapiens, UniProt Q5BJF2); experiment: GPCRScan assay: inhibition of Sigma 2; parameters: radioligand conc. used [nm] 5.0, parental cells HEKT
[2] = biological target: Muscarinic acetylcholine receptor M2 (Homo sapiens) (UniProt P08172); settings: Compound concentration 10.0 uM
[3] = biological target: Adrenergic receptor alpha-1 (Rattus norvegicus) (UniProt P15823+P23944+P43140); experiment: ALPHA1/R Eurofins-Panlabs selectivity data (BI); assay type: protein assay; settings: Compound concentration 10.0 uM
[4] = biological target: Sodium-dependent noradrenaline transporter (Homo sapiens) (UniProt P23975); settings: Compound concentration 10.0 uM
[5] = biological target: GABA-A receptor; anion channel (Rattus norvegicus) (UniProt O09028+P15431+P18506+P18508+P19969+P20236+P23574+P23576+P28471+P28473+P30191+P62813+P63079+P63138+Q91ZM7+Q9ES14); settings: Compound concentration 10.0 uM
[6] = biological target: Sodium-dependent serotonin transporter (Homo sapiens) (UniProt P31645); experiment: 5HTTRANS/HU Eurofins-Panlabs selectivity data (BI); settings: Compound concentration 10.0 uM
[7] = biological target: Carbonic anhydrase 6 (Homo sapiens) (UniProt P23280); experiment: CANHYDRASE Eurofins-Panlabs selectivity data (BI); settings: Compound concentration 10.0 uM
[8] = biological target: Sodium-dependent dopamine transporter (Homo sapiens) (UniProt Q01959); experiment: DATRANS/H Eurofins-Panlabs selectivity data (BI); settings: Compound concentration 10.0 uM
[9] = biological target: Muscarinic acetylcholine receptor (Rattus norvegicus) (UniProt P08482+P08483+P08485+P08911+P10980); experiment: MUSCARIN/NS Eurofins-Panlabs selectivity data (BI); assay type: protein assay; settings: Compound concentration 10.0 uM
[10] = biological target: Acetylcholine receptor subunit alpha (Homo sapiens) (UniProt P02708); experiment: NACH/H Eurofins-Panlabs selectivity data (BI); settings: Compound concentration 10.0 uM
[11] = biological target: Voltage-dependent L-type calcium channel subunit alpha-1C (phenylalkylamine site) (Rattus norvegicus, UniProt P22002); experiment: CA+/PAASITE Eurofins-Panlabs selectivity data (BI); settings: read-out: % Ctrl
[12] = biological target: Opioid receptor (Rattus norvegicus) (UniProt P33533+P34975+P33535); experiment: OPIAT/NS Eurofins-Panlabs selectivity data (BI); assay type: protein assay; settings: Compound concentration 10.0 uM
[13] = biological target: T1, 5-hydroxytryptamine receptor 3A (Homo sapiens) (UniProt P46098); experiment: 5HT3/HU Eurofins-Panlabs selectivity data (BI); settings: Compound concentration 10.0 uM
T1 sequence (whole entry): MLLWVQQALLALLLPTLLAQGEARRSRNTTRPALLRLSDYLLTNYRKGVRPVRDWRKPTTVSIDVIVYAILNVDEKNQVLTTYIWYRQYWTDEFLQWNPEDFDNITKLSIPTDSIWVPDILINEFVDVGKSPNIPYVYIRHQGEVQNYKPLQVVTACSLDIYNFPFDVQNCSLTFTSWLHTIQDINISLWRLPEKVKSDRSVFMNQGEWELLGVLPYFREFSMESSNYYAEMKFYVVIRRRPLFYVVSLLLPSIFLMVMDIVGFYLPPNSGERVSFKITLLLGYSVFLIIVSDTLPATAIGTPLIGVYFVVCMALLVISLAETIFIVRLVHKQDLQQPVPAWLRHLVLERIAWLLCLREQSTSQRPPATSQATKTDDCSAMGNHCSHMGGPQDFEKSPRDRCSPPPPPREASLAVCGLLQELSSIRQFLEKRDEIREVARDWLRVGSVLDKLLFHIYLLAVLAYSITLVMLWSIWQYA

[14] = biological target: Muscarinic acetylcholine receptor M1 (Rattus norvegicus) (UniProt P08482); experiment: MUSCARIN/OTM Eurofins-Panlabs selectivity data (BI); settings: Compound concentration 10.0 uM
[15] = biological target: 5-hydroxytryptamine receptor 5A (Homo sapiens) (UniProt P47898); experiment: 5HT5A/HU Eurofins-Panlabs selectivity data (BI); settings: Compound concentration 10.0 uM
[16] = biological target: ATP-sensitive inward rectifier potassium channel 1 isoform X1 (Mesocricetus auratus) (UniProt A0A1U8CU73); experiment: K+/KATP/HA Eurofins-Panlabs selectivity data (BI); settings: Compound concentration 10.0 uM
[17] = biological target: Amine oxidase [flavin-containing] A (MAO-A) (Homo sapiens, UniProt P21397); experiment: MAOA Eurofins-Panlabs selectivity data (BI); parameters: mode of action inhibitor; settings: compound concentration 10 uM, read-out: % Ctrl
[18] = biological target: Glutamate receptor ionotropic, NMDA 1 (Rattus norvegicus) (UniProt P35439); experiment: GLUTAMAT/R Eurofins-Panlabs selectivity data (BI); settings: Compound concentration 10.0 uM
[19] = biological target: D(1B) dopamine receptor (Homo sapiens) (UniProt P21918); experiment: D5/HU Eurofins-Panlabs selectivity data (BI); settings: Compound concentration 10.0 uM
[20] = biological target: Serotonin 1 (5-HT1) receptor (Rattus norvegicus) (UniProt P28564+P30940+P19327+P28565); experiment: 5HT1/R Eurofins-Panlabs selectivity data (BI); assay type: protein assay; settings: Compound concentration 10.0 uM
[21] = biological target: Gamma-aminobutyric acid receptor subunit alpha-1 (Rattus norvegicus) (UniProt P62813); experiment: GABAACL+ Eurofins-Panlabs selectivity data (BI); settings: Compound concentration 10.0 uM
[22] = biological target: Small conductance calcium-activated potassium channel protein 1 (Rattus norvegicus) (UniProt P70606); experiment: K+/SKCA Eurofins-Panlabs selectivity data (BI); settings: Compound concentration 10.0 uM
[23] = biological target: Sodium/potassium-transporting ATPase subunit alpha-1 (Sus scrofa) (UniProt P05024); experiment: ATP NA+/K+PI Eurofins-Panlabs selectivity data (BI); settings: Compound concentration 10.0 uM
[24] = biological target: Histamine H2 receptor (Homo sapiens) (UniProt P25021); experiment: H2/H Eurofins-Panlabs selectivity data (BI); settings: Compound concentration 10.0 uM
[25] = biological target: Amine oxidase [flavin-containing] B (MAO-B) (Homo sapiens, UniProt P27338); experiment: MAOB Eurofins-Panlabs selectivity data (BI); parameters: mode of action inhibitor; settings: compound concentration 10 uM, read-out: % Ctrl
[26] = biological target: Sodium-dependent noradrenaline transporter (Homo sapiens) (UniProt P23975); experiment: NETRANS/H Eurofins-Panlabs selectivity data (BI); settings: Compound concentration 10.0 uM
[27] = biological target: 5-hydroxytryptamine receptor 4 (Cavia porcellus) (UniProt O70528); experiment: 5HT4/GPIG Eurofins-Panlabs selectivity data (BI); settings: Compound concentration 10.0 uM
Cavia porcellus = species: Cavia porcellus; experiment: ATRANS Eurofins-Panlabs selectivity data (BI); settings: Compound concentration 10.0 uM
[28] = biological target: Histamine H3 receptor (Homo sapiens) (UniProt Q9Y5N1); experiment: H3/H Eurofins-Panlabs selectivity data (BI); settings: Compound concentration 10.0 uM
[29] = biological target: Beta-2 adrenergic receptor (Rattus norvegicus) (UniProt P10608); experiment: BETA/R Eurofins-Panlabs selectivity data (BI); settings: Compound concentration 10.0 uM
[30] = biological target: Vasopressin V2 receptor (Homo sapiens) (UniProt P30518); experiment: VASOPRE_V2 Eurofins-Panlabs selectivity data (BI); settings: Compound concentration 10.0 uM
Sequence of Vasopressin V2 receptor (Homo sapiens) (P30518 whole entry): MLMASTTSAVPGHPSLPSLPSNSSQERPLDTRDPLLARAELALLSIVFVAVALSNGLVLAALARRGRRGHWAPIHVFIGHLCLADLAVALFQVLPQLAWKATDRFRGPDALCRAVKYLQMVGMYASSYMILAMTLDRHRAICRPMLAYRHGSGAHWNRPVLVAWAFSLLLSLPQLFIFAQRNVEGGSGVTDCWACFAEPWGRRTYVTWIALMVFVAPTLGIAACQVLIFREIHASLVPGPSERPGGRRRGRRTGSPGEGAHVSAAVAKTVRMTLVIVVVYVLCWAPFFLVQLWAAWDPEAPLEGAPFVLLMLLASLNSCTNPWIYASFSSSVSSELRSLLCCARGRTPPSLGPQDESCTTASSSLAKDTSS

Sequence of Voltage-dependent L-type calcium channel subunit alpha-1C (phenylalkylamine site) (P22002 whole entry): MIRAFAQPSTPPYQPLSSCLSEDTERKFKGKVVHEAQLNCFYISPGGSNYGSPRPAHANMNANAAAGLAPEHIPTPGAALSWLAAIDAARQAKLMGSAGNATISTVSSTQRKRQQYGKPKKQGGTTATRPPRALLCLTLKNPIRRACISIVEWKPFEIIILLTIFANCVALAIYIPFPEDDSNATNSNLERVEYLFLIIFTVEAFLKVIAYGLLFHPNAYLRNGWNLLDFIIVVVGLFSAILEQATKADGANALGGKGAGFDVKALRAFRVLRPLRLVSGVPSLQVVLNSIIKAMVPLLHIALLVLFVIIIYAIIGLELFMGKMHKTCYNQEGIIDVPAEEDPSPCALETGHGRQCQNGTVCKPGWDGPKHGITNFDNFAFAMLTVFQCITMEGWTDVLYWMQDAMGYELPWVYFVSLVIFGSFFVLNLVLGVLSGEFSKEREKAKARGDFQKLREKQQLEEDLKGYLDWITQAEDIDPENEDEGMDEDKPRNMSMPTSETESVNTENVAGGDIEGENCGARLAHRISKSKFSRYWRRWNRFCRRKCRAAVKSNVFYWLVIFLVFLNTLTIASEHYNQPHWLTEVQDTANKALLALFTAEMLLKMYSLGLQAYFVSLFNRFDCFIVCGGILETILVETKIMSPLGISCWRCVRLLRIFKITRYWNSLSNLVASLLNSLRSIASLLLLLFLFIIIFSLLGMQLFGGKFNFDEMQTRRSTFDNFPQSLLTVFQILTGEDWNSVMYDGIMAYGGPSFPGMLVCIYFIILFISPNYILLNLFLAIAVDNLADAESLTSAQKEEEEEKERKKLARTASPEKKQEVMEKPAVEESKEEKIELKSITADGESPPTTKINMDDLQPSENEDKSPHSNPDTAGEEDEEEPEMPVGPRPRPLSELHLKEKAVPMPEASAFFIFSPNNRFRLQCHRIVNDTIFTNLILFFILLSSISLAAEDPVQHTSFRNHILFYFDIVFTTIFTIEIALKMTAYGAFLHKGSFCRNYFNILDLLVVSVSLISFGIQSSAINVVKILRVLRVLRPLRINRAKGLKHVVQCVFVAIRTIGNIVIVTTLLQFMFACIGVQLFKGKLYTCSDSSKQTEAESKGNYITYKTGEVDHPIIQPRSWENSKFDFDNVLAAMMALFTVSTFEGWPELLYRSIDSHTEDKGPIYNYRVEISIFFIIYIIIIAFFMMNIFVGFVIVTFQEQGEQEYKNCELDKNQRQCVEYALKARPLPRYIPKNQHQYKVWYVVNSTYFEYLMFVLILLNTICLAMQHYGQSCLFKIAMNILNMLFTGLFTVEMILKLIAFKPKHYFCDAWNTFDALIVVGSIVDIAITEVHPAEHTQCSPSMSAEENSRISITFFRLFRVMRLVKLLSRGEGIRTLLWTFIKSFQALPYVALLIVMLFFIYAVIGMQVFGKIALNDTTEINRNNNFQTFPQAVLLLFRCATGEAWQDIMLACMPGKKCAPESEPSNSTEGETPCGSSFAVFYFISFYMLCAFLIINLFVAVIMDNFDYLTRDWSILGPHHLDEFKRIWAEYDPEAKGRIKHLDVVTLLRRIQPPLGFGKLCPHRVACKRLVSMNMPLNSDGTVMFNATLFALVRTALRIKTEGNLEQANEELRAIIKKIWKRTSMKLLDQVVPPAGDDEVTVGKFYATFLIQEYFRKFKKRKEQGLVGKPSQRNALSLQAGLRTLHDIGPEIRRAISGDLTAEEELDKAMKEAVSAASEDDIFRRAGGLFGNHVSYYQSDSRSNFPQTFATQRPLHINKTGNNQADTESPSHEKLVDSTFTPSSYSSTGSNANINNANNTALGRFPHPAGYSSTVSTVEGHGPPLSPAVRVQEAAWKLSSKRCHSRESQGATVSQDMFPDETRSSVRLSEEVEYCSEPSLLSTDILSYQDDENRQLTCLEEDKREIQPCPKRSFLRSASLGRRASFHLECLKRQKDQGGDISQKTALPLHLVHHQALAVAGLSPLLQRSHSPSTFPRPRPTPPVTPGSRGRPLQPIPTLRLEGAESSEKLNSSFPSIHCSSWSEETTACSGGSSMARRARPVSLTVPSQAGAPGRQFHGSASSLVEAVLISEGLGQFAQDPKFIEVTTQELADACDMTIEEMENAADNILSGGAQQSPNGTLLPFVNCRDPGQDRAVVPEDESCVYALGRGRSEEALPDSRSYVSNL
Sequence of Sigma intracellular receptor 2 (Q5BJF2 whole entry): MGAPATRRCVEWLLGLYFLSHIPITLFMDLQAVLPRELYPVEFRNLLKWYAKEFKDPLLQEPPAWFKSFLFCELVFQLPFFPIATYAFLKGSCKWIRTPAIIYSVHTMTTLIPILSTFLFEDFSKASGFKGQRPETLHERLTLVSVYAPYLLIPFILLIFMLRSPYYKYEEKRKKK
Sequence of Sodium-dependent noradrenaline transporter (Homo sapiens) (P23975 whole entry): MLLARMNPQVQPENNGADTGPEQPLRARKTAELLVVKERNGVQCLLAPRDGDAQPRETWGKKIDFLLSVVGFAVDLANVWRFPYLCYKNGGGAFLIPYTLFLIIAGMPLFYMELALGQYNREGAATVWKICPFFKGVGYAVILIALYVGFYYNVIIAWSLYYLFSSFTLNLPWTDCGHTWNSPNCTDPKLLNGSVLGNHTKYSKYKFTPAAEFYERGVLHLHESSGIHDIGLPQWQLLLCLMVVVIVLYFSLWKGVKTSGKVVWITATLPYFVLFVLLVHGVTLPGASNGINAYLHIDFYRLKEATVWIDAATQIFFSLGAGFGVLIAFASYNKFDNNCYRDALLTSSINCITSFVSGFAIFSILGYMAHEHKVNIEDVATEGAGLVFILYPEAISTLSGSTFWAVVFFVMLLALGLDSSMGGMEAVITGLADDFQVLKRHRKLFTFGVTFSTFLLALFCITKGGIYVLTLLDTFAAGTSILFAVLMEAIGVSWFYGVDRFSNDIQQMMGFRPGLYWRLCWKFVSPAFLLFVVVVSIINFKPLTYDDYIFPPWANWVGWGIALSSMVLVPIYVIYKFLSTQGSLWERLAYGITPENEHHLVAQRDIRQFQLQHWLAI
Sequence of ATP-sensitive inward rectifier potassium channel 1 isoform X1 (Mesocricetus auratus) (A0A1U8CU73 as listed by the source): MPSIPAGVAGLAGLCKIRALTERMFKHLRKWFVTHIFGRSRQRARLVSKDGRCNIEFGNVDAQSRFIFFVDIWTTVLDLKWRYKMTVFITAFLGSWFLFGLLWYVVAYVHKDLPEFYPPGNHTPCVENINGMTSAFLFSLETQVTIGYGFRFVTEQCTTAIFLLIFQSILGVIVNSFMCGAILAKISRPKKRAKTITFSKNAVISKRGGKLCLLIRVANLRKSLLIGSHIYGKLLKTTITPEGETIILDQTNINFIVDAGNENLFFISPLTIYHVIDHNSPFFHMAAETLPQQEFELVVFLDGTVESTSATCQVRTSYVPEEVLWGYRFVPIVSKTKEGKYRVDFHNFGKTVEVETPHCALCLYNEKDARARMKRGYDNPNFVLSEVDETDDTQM
Sequence of Small conductance calcium-activated potassium channel protein 1 (Rattus norvegicus) (P70606 whole entry): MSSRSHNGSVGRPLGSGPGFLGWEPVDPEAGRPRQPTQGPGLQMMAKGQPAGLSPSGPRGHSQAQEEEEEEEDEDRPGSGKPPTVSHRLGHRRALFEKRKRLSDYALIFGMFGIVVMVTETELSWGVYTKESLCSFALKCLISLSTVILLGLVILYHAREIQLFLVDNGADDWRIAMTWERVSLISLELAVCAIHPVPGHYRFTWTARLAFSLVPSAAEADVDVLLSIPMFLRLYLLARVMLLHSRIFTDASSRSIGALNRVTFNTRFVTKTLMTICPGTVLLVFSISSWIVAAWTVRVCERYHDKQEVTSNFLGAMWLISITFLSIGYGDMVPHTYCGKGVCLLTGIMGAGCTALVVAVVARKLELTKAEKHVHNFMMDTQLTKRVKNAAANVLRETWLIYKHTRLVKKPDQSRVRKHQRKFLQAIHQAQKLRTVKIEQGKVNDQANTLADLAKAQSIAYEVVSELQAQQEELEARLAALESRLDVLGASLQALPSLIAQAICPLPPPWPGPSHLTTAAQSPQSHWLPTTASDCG
Sequence of Amine oxidase [flavin-containing] A (MAO-A) (P21397 whole entry): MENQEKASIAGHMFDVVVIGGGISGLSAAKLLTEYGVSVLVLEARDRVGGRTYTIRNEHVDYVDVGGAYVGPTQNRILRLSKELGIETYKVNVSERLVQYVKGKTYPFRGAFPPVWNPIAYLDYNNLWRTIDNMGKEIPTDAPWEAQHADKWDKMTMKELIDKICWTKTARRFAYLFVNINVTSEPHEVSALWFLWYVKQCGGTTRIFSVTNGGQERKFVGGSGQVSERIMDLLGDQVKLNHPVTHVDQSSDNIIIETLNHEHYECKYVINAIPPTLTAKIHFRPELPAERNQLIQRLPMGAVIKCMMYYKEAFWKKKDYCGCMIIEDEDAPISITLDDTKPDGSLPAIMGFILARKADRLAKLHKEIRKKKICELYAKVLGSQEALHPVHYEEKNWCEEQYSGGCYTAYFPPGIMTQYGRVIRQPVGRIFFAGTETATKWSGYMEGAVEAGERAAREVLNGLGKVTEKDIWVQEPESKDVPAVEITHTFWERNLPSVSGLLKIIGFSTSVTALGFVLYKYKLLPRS

Q: Which Ki ([1]; read-out: Ki) does the source give for `C[C@@]1(Cc2ccc(C#N)cc2)C(=O)N(c2cc(Cl)cc(Cl)c2)c2ncc(C(=O)NC3(c4nc(C5CCC5)no4)CC3)n21` [BI 9446] here?
A: 558 nM

Q: And the Ki ([1]; read-out: pKi (converted))?
A: 507 nM

Q: And the inhibition [2]?
A: -8.35%

Q: Which residual activity [3] does the source give for `C[C@H](NC(=O)c1cnc2n1[C@](C)(Cc1ccc(C#N)cc1)C(=O)N2c1cc(Cl)c(F)c(Cl)c1)C(=O)NC1(c2ccccn2)CC1` [BI 1950] here?
A: 102%

Q: What about the inhibition [4] of the same compound?
A: -2.81%

Q: And the inhibition [5]?
A: 4.9%

Q: And the residual activity [6]?
A: 119%

Q: And the residual activity [7]?
A: 86%

Q: And the residual activity [8]?
A: 67%

Q: What about the residual activity [9] of the same compound?
A: 109%

Q: And the residual activity [10]?
A: 112%

Q: What about the activity at 0.03 µM ([11]; compound concentration 0.03 uM) of the same compound?
A: 109% (not active)

Q: What about the activity at 0.1 µM ([11]; compound concentration 0.1 uM) of the same compound?
A: 110% (not active)

Q: And the activity at 0.3 µM ([11]; compound concentration 0.3 uM)?
A: 102% (not active)

Q: What about the activity at 1 µM ([11]; compound concentration 1 uM) of the same compound?
A: 86% (not active)

Q: And the activity at 3 µM ([11]; compound concentration 3 uM)?
A: 76% (not active)

Q: What about the activity at 10 µM ([11]; compound concentration 10 uM) of the same compound?
A: 49.5%

Q: What about the residual activity [12] of the same compound?
A: 78%

Q: And the residual activity [13]?
A: 134%

Q: What about the residual activity [14] of the same compound?
A: 77%

Q: And the residual activity [15]?
A: 105%

Q: What about the residual activity [16] of the same compound?
A: 107%

Q: What about the activity at 10 µM [17] of the same compound?
A: 107% (not active)

Q: And the residual activity [18]?
A: 92%

Q: What about the residual activity [19] of the same compound?
A: 86%

Q: What about the residual activity [20] of the same compound?
A: 100%

Q: And the residual activity [21]?
A: 73%

Q: What about the residual activity [22] of the same compound?
A: 108%

Q: What about the residual activity [23] of the same compound?
A: 109%

Q: What about the residual activity [24] of the same compound?
A: 74%

Q: What about the activity at 10 µM [25] of the same compound?
A: 101% (not active)

Q: And the residual activity [26]?
A: 72%

Q: And the residual activity [27]?
A: 83%

Q: And the residual activity (Cavia porcellus)?
A: 92%

Q: And the residual activity [28]?
A: 98%

Q: What about the residual activity [29] of the same compound?
A: 84%

Q: And the residual activity [30]?
A: 85%
